According to patent US20060265776A1, “Viability” (priority 2003, published 2006):
Entries after “also recorded” stand apart in the source; their conditions may differ.

What was measured:
[1] = system: Arabidopsis thaliana cell suspension cultures; experiment: Viability staining with fluorescein diacetate and propidium iodide; format: cell-based; details: apyrase-treated cultures, 3 days
Method: The inventors decided to use viability staining to confirm cell death in these cell cultures. To achieve this, […] aliquots were removed from the cultures and the cells resuspended in 0.2M CaCl2 after removal of the growth medium. The aliquots were doubly-stained by incubating for 5 minutes with a final concentration of 25 μg/mL fluorescein diacetate [0.5% (w/v) stock solution in acetone] and 50 μg/mL propidium iodide [10 mg/mL stock solution in phosphate-buffered saline pH 7.4]. […] The viable cells had also excluded propidium iodide, which is non-permeative and can only cross membranes of dead or dying cells. Dead cells had taken up propidium iodide, which binds to DNA, resulting in nuclei emitting a very intense red fluorescence.

[2] = system: tobacco leaves; experiment: Leaf infiltration, tobacco; format: in vivo, Nicotiana tabacum
Method: (§1) Tobacco (Nicotiana tabacum), Arabidopsis, and bean (Phaseolus vulgaris) plants were sown in soil and raised in a growth cabinet with a 16-hour photoperiod at 20° C. and 8 hours of darkness at 15° C. The relative humidity was maintained at 60% and the photon flux density was 250 μmolm^−2 s^−1. […] Only the cotyledons of bean plants were treated. The abaxial surface of a small zone of leaf tissue was treated by infiltrating the apoplast with the solution using a syringe and hypodermic needle. The three test solutions had the following concentrations of either: 0.5 units/μL apyrase, 1.85 units/μL hexokinase plus 100 mM glucose, or 1-5 mM AMP-PCP (pH 6.5).

[3] = system: Tobacco (Nicotiana tabacum), Arabidopsis, and bean (Phaseolus vulgaris) plants; experiment: Leaf infiltration of extracellular ATP depletion systems, whole plants; format: in vivo; details: 0.5 units/μL apyrase, 1.85 units/μL hexokinase plus 100 mM glucose, 1-5 mM AMP-PCP (pH 6.5); ATP (pH 6.5)
Method: as §1
The concentrations used were the same as defined above unless stated otherwise.

[4] = system: Arabidopsis thaliana cell suspension cultures; format: cell-based
Method: A. thaliana cell cultures were grown as described in example 1. Aliquots of the cell suspension (1.5 mL) were treated with a final concentration of 0, 20, 50, or 100 units/mL of apyrase. […] The dead cells had become buoyant and adhered to the walls of the vials, forming a ring just above the edge of the swirling medium. The ring of cells was sometimes dislodged and fell into the medium, resulting in apyrase-treated cultures having flakes of dead cells at the bottom of the vials.
To quantify the effect of apyrase on cell viability, the ability of the cells to grow and multiply subsequent to treatment was measured after diluting the cultures by over 30 times in fresh medium not containing any additives. This was achieved by transferring the cells treated for 3 days to 50 mL of fresh growth medium and allowing them to grow for a further 4 days. At the end of this period, triplicate 1 mL aliquots were sampled from the cultures and the volume of the cells was measured and expressed as a percentage of the culture volume. The method used to determine the packed cell volume was as follows: 1 mL cell culture aliquots were placed in 1.5 mL microfuge tubes and the cells gently compacted by centrifuging (1000 rpm., 10 minutes) in a swing-out rotor (Grundrotor 11030; Sigma laborzentrifugen GmbH, Oestrode, Germany). The level of the cells was marked on the wall of the tube and the volume of cells determined by measuring the volume of water needed to fill the tube to the marked level. The packed cell volume was expressed as the volume occupied by cells as a percentage of 1000 μL.
In each case the error bars represent the standard deviation.

[5] = system: bean plants; experiment: Leaf infiltration, bean; format: in vivo, Phaseolus vulgaris; details: apyrase, hexokinase; 100 mM glucose
Method: as §1

[6] = system: Black Mexican sweet corn cells; experiment: Cell viability of corn suspension cells; format: cell-based, Zea mays; details: 1 mM ATP, 1 mM AMP-PCP, 100 units/mL apyrase, 200 units/mL hexokinase; 100 mM glucose in culture

## apyrase
[1]
  dead cells by viability staining: significantly high proportion of cells in the apyrase-treated cell cultures was dead
[2]; 1 mM AMP-PCP, 1 mM ATP, apyrase, hexokinase plus glucose
  local tissue death after infiltration of tobacco leaves: development of localised necrotic lesions
[2]; 5 mM AMP-PCP or equivalent amount of ATP, after 4 days
  state of tobacco plant after treatment of a leaf: Comparable results
[3]
  necrotic lesions after local leaf infiltration: development of necrotic lesions in the area where the application was made within 2 days of treatment; also recorded: localised necrotic lesions
[4]
  loss in viability: over 80%
[4]; 20, 50 or 100 units/mL apyrase, incubated for 3 days
  cell death seen in cultures: showed a significant frequency of cell death
[4]; apyrase 0-100 units/mL, hexokinase 0-200 units/mL with 100 mM glucose, AMP-PCP 0-1.5 mM
  cell viability with increasing concentration (dose-response), in words: progressive decrease in cell viability
[5]
  necrotic lesions on bean leaves: development of necrotic lesions on leaves
[6]
  viability of corn cells: caused significant cell death
